These are literature values, as cited in patent publication US6140051A, “Fluorescent dibenzazole derivatives and methods related thereto” (priority 1998, dated 2000).

The conditions of the data set: aqueous; cited from earlier work.

In the case of `OC[C@H]1O[C@@H](Oc2ccc3nc(-c4nc5ccccc5s4)sc3c2)[C@H](O)[C@@H](O)[C@H]1O` [galactoside of BBT], the solubility result is “less than 1 mM”.
